Patent US20120083522A1, “MODULATION OF INFLAMMATORY RESPONSES BY FACTOR XI” (Isis Pharmaceuitcals, inc., priority 2009, published 2012)
In the oligonucleotide strings, read from the 5' end, every base follows the letter of its sugar. An asterisk marks phosphorothioate; unmarked linkages are phosphodiester. Other units and linkages are bracketed, terminal groups are in braces. A string of capitals states the bases alone. e = 2'-O-(2-methoxyethyl) (MOE); [5mC] = 5-methylcytosine; d = 2'-deoxy (DNA)

What was measured:
Type in all cases: cell-based
[1] = tested on: human Factor XI mRNA; assay: Dose-dependent inhibition in HepB3 cells, electroporation (Example 7); conditions: approx. 16 h
Experimental: The gapmers were also transfected via electroporation and their dose dependent inhibition of human Factor XI mRNA was measured. Cells were plated at a density of 20,000 cells per well and transfected via electroporation with 41.15 nM, 123.457 nM, 370.37 nM, 1111.11 nM, 3333.33 nM, and 10,000 nM concentrations of antisense oligonucleotide, as specified in Table 15. After a treatment period of approximately 16 hours, RNA was isolated from the cells and human Factor XI mRNA levels were measured by quantitative real-time PCR. Human Factor XI primer probe set RTS 2966 was used to measure mRNA levels. Factor XI mRNA levels were adjusted according to total RNA content, as measured by RIBOGREEN®. Results are presented as percent inhibition of human Factor XI, relative to untreated control cells.

[2] = tested on: human Factor XI mRNA; assay: Dose-dependent inhibition in HepG2 cells, lipofectin (Example 5); conditions: 16 hours
Experimental: Cells were plated at a density of 10,000 cells per well and transfected using lipofectin reagent with 2.34 nM, 4.69 nM, 9.375 nM, 18.75 nM, 37.5 nM, and 75 nM concentrations of antisense oligonucleotide, as specified in Table 11. After a treatment period of approximately 16 hours, RNA was isolated from the cells and human Factor XI mRNA levels were measured by quantitative real-time PCR. Human Factor XI primer probe set RTS 2966 was used to measure mRNA levels. Factor XI mRNA levels were adjusted according to total RNA content, as measured by RIBOGREEN®. Results are presented as percent inhibition of human Factor XI, relative to untreated control cells.

[3] = tested on: human Factor XI mRNA; assay: Dose-dependent inhibition in HepG2 cells, electroporation (Example 4); conditions: 16 hours
In short: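 HepG2 cells electroporated with 0.7, 2.2, 6.7 or 20 μM antisense gapmer and harvested after ~16 h. Factor XI mRNA quantified by qRT-PCR (primer probe set RTS 2966), normalised to total RNA (RIBOGREEN). Reported as percent inhibition versus untreated control cells.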

[4] = tested on: human Factor XI mRNA; assay: Dose-dependent inhibition in HepG2 cells, lipofectin (Example 4); conditions: 16 hours
In short: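 HepG2 cells at 10,000 per well were lipofectin-transfected with 9.375, 18.75, 37.5 or 75 nM antisense oligonucleotide for about 16 h. Factor XI mRNA was quantified by real-time PCR (primer probe set RTS 2966) and normalised to RIBOGREEN total RNA. Values are percent inhibition versus untreated cells.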

[5] = tested on: human Factor XI mRNA; assay: Antisense inhibition in HepG2 cells by microwalk gapmers, 8,000 nM, electroporation (Example 14); conditions: HepG2 cells, 8,000 nM
In short: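 HepG2 cells electroporated with 8,000 nM 2′-MOE phosphorothioate gapmer (5-10-5, 5-8-5 or 6-8-6). Factor XI mRNA measured after ~24 h by qRT-PCR, normalised to RIBOGREEN total RNA. Reported as percent inhibition versus untreated cells.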

Row | Substance | percent inhibition of human Factor XI mRNA ([1]; 41.15 nM) | percent inhibition of human Factor XI mRNA ([1]; 123.457 nM) | percent inhibition of human Factor XI mRNA ([1]; 370.37 nM) | percent inhibition of human Factor XI mRNA ([1]; 1111.11 nM) | percent inhibition of human Factor XI mRNA ([1]; 3333.33 nM) | percent inhibition of human Factor XI mRNA ([1]; 10000 nM) | percent inhibition of human Factor XI mRNA, relative to untreated control cells ([2]; 2.34 nM) | percent inhibition of human Factor XI mRNA, relative to untreated control cells ([2]; 4.69 nM) | percent inhibition of human Factor XI mRNA, relative to untreated control cells ([2]; 9.375 nM) | percent inhibition of human Factor XI mRNA, relative to untreated control cells ([2]; 18.75 nM) | percent inhibition of human Factor XI mRNA, relative to untreated control cells ([2]; 37.5 nM) | percent inhibition of human Factor XI mRNA, relative to untreated control cells ([2]; 75 nM) | percent inhibition of Factor XI mRNA, relative to untreated control cells ([3]; 0.7 μM) | percent inhibition of Factor XI mRNA, relative to untreated control cells ([3]; 2.2 μM) | percent inhibition of Factor XI mRNA, relative to untreated control cells ([3]; 6.7 μM) | percent inhibition of Factor XI mRNA, relative to untreated control cells ([3]; 20 μM) | percent inhibition of Factor XI mRNA, relative to untreated control cells ([4]; 9.375 nM) | percent inhibition of Factor XI mRNA, relative to untreated control cells ([4]; 18.75 nM) | percent inhibition of Factor XI mRNA, relative to untreated control cells ([4]; 37.5 nM) | percent inhibition of Factor XI mRNA, relative to untreated control cells ([4]; 75 nM) | also measured
1 | 416838 (antisense GCAACCGGGATGATGAGTGC; 5-10-5 gapmer, wing sugar chemistry not given here, further chemistry not given here) [compound 416838] | 12% | 9% | 28% | 40% | 77% | 88% | 21% | 37% | 50% | 63% | 74% | 83% | 5% | 30% | 55% | 83% | 31% | 51% | 64% | 86% | 
2 | 416925 (antisense GGTGCACAGTTTCTGGCAGG; 3-14-3 chimeric gapmer, wing sugar chemistry not given here, further chemistry not given here) [compound 416925] | 27% | 39% | 50% | 73% | 88% | 96% | 24% | 34% | 45% | 56% | 67% | 72% | 0% | 40% | 76% | 80% | 13% | 38% | 59% | 75% | 
3 | 416999 (antisense GCACAGTTTCTGGCAGGCCT; 2-13-5 gapmer, wing sugar chemistry not given here, further chemistry not given here) [compound 416999] | 31% | 45% | 62% | 78% | 94% | 97% | 10% | 26% | 42% | 62% | 72% | 80% | 20% | 42% | 77% | 88% | 24% | 37% | 55% | 73% | 
4 | 417002 (antisense GGTGCACAGTTTCTGGCAGG; 2-13-5 gapmer, wing sugar chemistry not given here, further chemistry not given here) [compound 417002] | 19% | 0% | 31% | 47% | 86% | 93% | 17% | 26% | 49% | 61% | 81% | 84% | 32% | 38% | 82% | 91% | 35% | 52% | 67% | 70% | 
5 | 417003 (antisense TGGTGCACAGTTTCTGGCAG; 2-13-5 gapmer, wing sugar chemistry not given here, further chemistry not given here) [compound 417003] | 31% | 0% | 15% | 43% | 84% | 92% | 6% | 29% | 48% | 64% | 73% | 82% | 0% | 34% | 75% | 89% | 26% | 44% | 60% | 56% | 
6 | 445522 (antisense eG*e[5mC]*eA*e[5mC]*eA*dG*dT*dT*dT*d[5mC]*dT*dG*dG*e[5mC]*eA*eG*eG*e[5mC]) [compound 445522] |  |  |  |  |  |  |  |  |  |  |  |  |  |  |  |  |  |  |  |  | Percent inhibition of human Factor XI mRNA levels [5]: 91%
7 | 445531 (antisense eG*eG*e[5mC]*eA*eT*dT*dG*dG*dT*dG*d[5mC]*dA*d[5mC]*eA*eG*eT*eT*eT) [compound 445531] |  |  |  |  |  |  |  |  |  |  |  |  |  |  |  |  |  |  |  |  | Percent inhibition of human Factor XI mRNA levels [5]: 90%
